In patent US8343964B2, “Indolic derivatives, their preparation processes and their uses in particular as antibacterials” (Universite Joseph Fourier, priority 2007, dated 2013):
Values after ≈ are worked out from the molar mass of the structure shown. Like-named read-outs stand apart in the source and are kept apart here.

How the values were obtained:
[1] = tested on: S. aureus ITS-1199B (overexpression of the efflux pump NorA); assay type: cell-based, Staphylococcus aureus; conditions: resistant strain R NorA; for MIC (μg/ml) of compound in the presence of ciprofloxacin at 4 μg/ml (c/4): ciprofloxacin 4 μg/ml (c/4); for MIC (μg/ml) of compound in the presence of ciprofloxacin at 8 μg/ml (c/2): ciprofloxacin 8 μg/ml (c/2)
Experimental: (§1) The two strains used are Staphylococcus aureus (ATCC 25923, sensitive Gram-positive strain) denoted S, and S. aureus ITS-1199 (without efflux), as well as its derivative S. aureus ITS-1199B (Kaatz, G. W., Seo, S. M., Antimicrob. Agents Chemother., 1995, 39, 2650-2655) having a resistance to the fluoroquinolones due to the overexpression of the efflux pump NorA and denoted R NorA. The bacteria are cultured at 37° C. in Mueller-Hinton (MH, Bio Rad) or Luria-Bertani (LB, Difco) Medium.
The experiences are carried out as above, but using the resistant strain, and looking at the effect of the mixture of the molecule to be tested and the antibiotic to which the bacterium is resistant. Thus, the method of a series of dilutions in Mueller-Hinton medium is used, also starting from a molecule concentration of 100 or 128 μg/ml.

[2] = tested on: Staphylococcus aureus (ATCC 25923, sensitive Gram-positive strain); assay: Determination of the antibacterial activity: MIC in liquid Mueller-Hinton medium (intrinsic antibacterial activity); assay type: cell-based
Experimental: as §1
The experiments described hereafter are carried out following the recommendations of the Comité de l'Antibiogramme de la Société Française de Microbiologic (http://www.sfm.asso.fr/nouv/general.php See also Courvalin, P., Goldstein, F., Philippon, A., Sirot J. L'antibiogramme, 1985, M.P.C.-Videom editor). The antibacterial activity of the molecules was determined in liquid medium using a Biomek 2000 robot (Beckman) and micro-titration plates. The final volume in each well is 200 μl. A maximum volume of 5 μl of a solution of the molecule in DMSO is added to each well containing 10^6 CFU/ml (Colony Forming Units) of bacteria in MH medium. The final concentration of the molecule to be tested must be 100 or 128 μg/ml. […] Ampicillin is used as a positive control and the same volume of DMSO as that used to introduce the molecule (generally 2 to 5 μl) as a negative control.
The experiments are repeated three times.

[3] = tested on: KB (human mouth carcinoma); assay: In vitro cytotoxicity on KB cells; assay type: cell-based
Experimental: (§2) The in vitro cytotoxicity results, measured at a concentration of 10^−5 M, are described below. The cytotoxicity was measured on 5 cell lines—KB (human mouth carcinoma), MCF7 (breast carcinoma) and MCF7R (resistant strain), Vero (monkey kidney) and HCT116 (human colon tumour).

[4] = In vitro cytotoxicity on Vero cells; assay type: cell-based; conditions: monkey
Experimental: as §2

[5] = In vitro cytotoxicity on HCT116 cells; assay type: cell-based; conditions: human, concentration of 10^−5 M, read-out: Average cytotoxicity (% inhibition), HCT116 cells
Experimental: as §2

[6] = ATCC25923, 18 h, read-out: MIC / Antibacterial Activity (AA)
[7] = Vero cells (monkey kidney), concentration of 10^−5 M, read-out: Average cytotoxicity (% inhibition), Vero cells
[8] = HCT116 cells (human colon tumour)
[9] = ATCC25923, compound alone, lowest concentration allowing no growth after 18 hours at 37° C., 10^6 CFU/ml, read-out: MIC / Antibacterial Activity (AA)
[10] = concentration of 10^−5 M, read-out: Average cytotoxicity (% inhibition), Vero cells

## COc1ccc(CN(O)C(CNC(=O)OC(C)(C)C)c2c[nH]c3ccc(Br)cc23)c(OC)c1 (centres unmarked) [Compound (8)]
[1]
  MIC (μg/ml) of compound in the presence of ciprofloxacin at 4 μg/ml (c/4): 8 µg/mL
  MIC (μg/ml) of compound in the presence of ciprofloxacin at 8 μg/ml (c/2): 8 µg/mL

## CC(C)(C)OC(=O)NCC(c1c[nH]c2ccc(Br)cc12)[N+]([O-])=Cc1ccccc1 (centres unmarked) [(20 bis)]
[1]
  MIC (μg/ml) of compound in the presence of ciprofloxacin at 4 μg/ml (c/4): 1 µg/mL
  MIC (μg/ml) of compound in the presence of ciprofloxacin at 8 μg/ml (c/2): 1 µg/mL

## CC(C)(C)OC(=O)NCC(c1c[nH]c2ccc(Br)cc12)N(O)Cc1ccccc1 (centres unmarked) [Compound (4)]
[2]; [6]
  MIC: 25 µg/mL (≈ 54.3 µM)

## COc1cc(CN(O)C(CNC(=O)OC(C)(C)C)c2c[nH]c3ccc(Br)cc23)cc(OC)c1 (centres unmarked) [(10)]
[1]
  MIC (μg/ml) of compound in the presence of ciprofloxacin at 4 μg/ml (c/4): 8 µg/mL

## CC(C)(C)OC(=O)NCC(c1c[nH]c2ccccc12)N(O)C(=O)OC(C)(C)C (centres unmarked) [Compound (11)]
[3]; concentration of 10^−5 M
  Average cytotoxicity (% inhibition), KB cells: 14%
[4]; [7]
  cytotoxicity: 15%
[5]; [8]
  cytotoxicity: 22%

## CC(c1c[nH]c2ccc(Br)cc12)/[N+]([O-])=C\c1ccccc1 (centres unmarked) [(43)]
[2]; [6]
  MIC: 100 µg/mL (≈ 291 µM)

## CC(C)CC(c1c[nH]c2ccccc12)N(O)C(=O)OC(C)(C)C (centres unmarked) [Compound (47)]
[2]; [9]
  MIC: 64 µg/mL (≈ 201 µM)
[1]
  MIC (μg/ml) of compound in the presence of ciprofloxacin at 4 μg/ml (c/4): 32 µg/mL

## CC(NCc1ccccc1)c1c[nH]c2ccc(Br)cc12 (centres unmarked) [Compound (15)]
[2]; [6]
  MIC: 25 µg/mL (≈ 75.9 µM)

## CC(c1c[nH]c2ccccc12)N(O)Cc1ccccc1 (centres unmarked) [(37)]
[1]
  MIC (μg/ml) of compound in the presence of ciprofloxacin at 4 μg/ml (c/4): >8 µg/mL
  MIC (μg/ml) of compound in the presence of ciprofloxacin at 8 μg/ml (c/2): >8 µg/mL

## COc1ccc(CN(O)C(C)c2c[nH]c3ccc(Br)cc23)cc1 (centres unmarked) [Compound (3)]
[2]; [6]
  MIC: 100 µg/mL (≈ 266 µM)

## CC(c1c[nH]c2ccc(Br)cc12)N(O)Cc1ccccc1 (centres unmarked) [Compound (1)]
[2]; [9]
  MIC: 25 µg/mL (≈ 72.4 µM)
[3]; concentration of 10^−5 M
  Average cytotoxicity (% inhibition), KB cells: 50%
[4]; [7]
  cytotoxicity: 36%
[5]; [8]
  cytotoxicity: 28%

## CC(C)(C)OC(=O)NCC(c1c[nH]c2ccc(Cl)cc12)N(O)C(=O)OC(C)(C)C (centres unmarked) [Compound (12)]
[2]; [9]
  MIC: 12.5 µg/mL (≈ 29.3 µM)
[1]
  MIC (μg/ml) of compound in the presence of ciprofloxacin at 4 μg/ml (c/4): 4 µg/mL

## CC(C)(C)OC(=O)NCC(NO)c1c[nH]c2cc(Br)ccc12 (centres unmarked) [(22)]
[2]; [6]
  MIC: 50 µg/mL (≈ 135 µM)
[3]; concentration of 10^−5 M
  Average cytotoxicity (% inhibition), KB cells: 0%
[4]; [7]
  cytotoxicity: 22%
[5]; [8]
  cytotoxicity: 37%

## CC(C)(C)OC(=O)NCC(NO)c1c[nH]c2ccc(Br)cc12 (centres unmarked) [(21), 1-N-(hydroxy)amino-2-[N′-(tert-butoxycarbonyl)amino]-1-(5′-bromo-3′-indolyl) ethane]
[2]; [6]
  MIC: 50 µg/mL (≈ 135 µM)
[3]; concentration of 10^−5 M
  Average cytotoxicity (% inhibition), KB cells: 0%
[4]; [7]
  cytotoxicity: 11%
[5]; [8]
  cytotoxicity: 28%

## CC(C)(C)OC(=O)NCC(c1c[nH]c2cc(Br)ccc12)N(O)Cc1ccccc1 (centres unmarked) [Compound (5)]
[2]; [9]
  MIC: 6 µg/mL (≈ 13 µM)
[1]
  MIC (μg/ml) of compound in the presence of ciprofloxacin at 4 μg/ml (c/4): 2 µg/mL

## COc1ccc2[nH]cc(C(N)CNC(=O)OC(C)(C)C)c2c1 (centres unmarked) [(24), 1-amino-[2-N′-(tert-butoxycarbonyl)amino]-1-(5′-methoxy-3′-indolyl) ethane]
[2]; ATCC25923
  MIC: ≤ 10 µg/mL
[1]
  MIC (μg/ml) of compound in the presence of ciprofloxacin at 8 μg/ml (c/2): 4 µg/mL
[3]; concentration of 10^−5 M
  Average cytotoxicity (% inhibition), KB cells: 2%
[4]; [7]
  cytotoxicity: 12%
[5]; [8]
  cytotoxicity: 13%

## CC(C)(C)OC(=O)NCC(N)c1c[nH]c2cc(Br)ccc12 (centres unmarked) [(26)]
[2]; [6]
  MIC: 25 µg/mL (≈ 70.6 µM)

## NCC(N)c1c[nH]c2cc(Br)ccc12 (centres unmarked) [(28)]
[2]; [9]
  MIC: 25 µg/mL (≈ 98.4 µM)

## CC(C)(C)OC(=O)NCC(c1c[nH]c2ccc(Br)cc12)N(O)C(=O)OC(C)(C)C (centres unmarked) [Compound (13), 1-[N-(tert-butoxycarbonyl)-N-(hydroxy)amino]-2-[N-(tert-butoxycarbonyl)]-1-(5′-bromo-3′-indolyl)ethane]
[2]; [6]
  MIC: 50 µg/mL (≈ 106 µM)

## CC(C)(C)OC(=O)NCC(NO)c1c[nH]c2ccccc12 (centres unmarked) [(46), 1-N-(hydroxy)amino-2-[N′-(tert-butoxycarbonyl)amino]-1-(indol-3′-yl)ethane]
[3]; concentration of 10^−5 M
  Average cytotoxicity (% inhibition), KB cells: 31%
[4]; [7]
  cytotoxicity: 0%
[5]; [8]
  cytotoxicity: 39%

## COc1ccc(/C=[N+](\[O-])C(CNC(=O)OC(C)(C)C)c2c[nH]c3ccc(Br)cc23)cc1 (centres unmarked) [(20)]
[1]
  MIC (μg/ml) of compound in the presence of ciprofloxacin at 4 μg/ml (c/4): 3 µg/mL
  MIC (μg/ml) of compound in the presence of ciprofloxacin at 8 μg/ml (c/2): <3 µg/mL

## CC(c1c[nH]c2cc(Br)ccc12)N(O)Cc1ccccc1 (centres unmarked) [Compound (2)]
[2]; [6]
  MIC: 100 µg/mL (≈ 290 µM)

## CC(C)(C)OC(=O)NCC(NC(=O)OC(C)(C)C)c1c[nH]c2cc(Br)ccc12 (centres unmarked) [(36)]
[1]
  MIC (μg/ml) of compound in the presence of ciprofloxacin at 4 μg/ml (c/4): 8 µg/mL

## CC(C)(C)OC(=O)NCC(N)c1c[nH]c2ccc(Br)cc12 (centres unmarked) [(25), 1-amino-2-[N′-(tert-butoxycarbonyl)amino]-1-(5′-bromo-3′-indolyl) ethane]
[2]; [6]
  MIC: 25 µg/mL (≈ 70.6 µM)

## COc1ccc2[nH]cc(C(C)N(O)Cc3ccccc3)c2c1 (centres unmarked) [(38)]
[1]
  MIC (μg/ml) of compound in the presence of ciprofloxacin at 8 μg/ml (c/2): >8 µg/mL
[3]; concentration of 10^−5 M
  Average cytotoxicity (% inhibition), KB cells: 0%
[4]; [7]
  cytotoxicity: 5%
[5]; [8]
  cytotoxicity: 15%

## COc1ccc2c(C(CNC(=O)OC(C)(C)C)N(O)Cc3ccccc3)c[nH]c2c1 (centres unmarked) [Compound (50), 1-[N-benzyl-N-(hydroxy)amino]-2-[N′-(tert-butoxycarbonyl)amino]-1-(6′-methoxyindol-3′-yl)ethane]
[4]; [7]
  cytotoxicity: 42%

## COc1ccc(CN(O)C(CC(C)C)c2c[nH]c3ccccc23)c(OC)c1 (centres unmarked) [(40)]
[1]
  MIC (μg/ml) of compound in the presence of ciprofloxacin at 8 μg/ml (c/2): >8 µg/mL
[3]; concentration of 10^−5 M
  Average cytotoxicity (% inhibition), KB cells: 13%
[4]; [7]
  cytotoxicity: 32%
[5]; [8]
  cytotoxicity: 46%

## CC(C)(C)OC(=O)NCC(N)c1c[nH]c2ccccc12 (centres unmarked) [(23)]
[1]
  MIC (μg/ml) of compound in the presence of ciprofloxacin at 8 μg/ml (c/2): 4 µg/mL
[3]; concentration of 10^−5 M
  Average cytotoxicity (% inhibition), KB cells: 2%
[4]; [7]
  cytotoxicity: 11%
[5]; [8]
  cytotoxicity: 5%

## COc1ccc2c(C(N)CN)c[nH]c2c1 (centres unmarked) [(31)]
[2]; [9]
  MIC: 64 µg/mL (≈ 312 µM)
[3]; human
  Average cytotoxicity (% inhibition), KB cells: 41%
[4]
  cytotoxicity: 27%

## Cl.Cl.NCC(NO)c1c[nH]c2ccc(Br)cc12 (centres unmarked) [(32), 1-(N-hydroxy)-1,2-diamino-1-(5′-bromo-3′-indolyl)ethane dihydrochloride]
[2]; [9]
  MIC: 3 µg/mL
[3]; concentration of 10^−5 M
  Average cytotoxicity (% inhibition), KB cells: 23%
[4]; [10]
  cytotoxicity: 20%

## O=C(CONC(=O)OCC1c2ccccc2-c2ccccc21)NC(COCc1ccccc1)c1c[nH]c2ccccc12 (centres unmarked) [Compound (48)]
[1]
  MIC (μg/ml) of compound in the presence of ciprofloxacin at 4 μg/ml (c/4): 2 µg/mL

## Cl.Cl.NCC(NO)c1c[nH]c2cc(Br)ccc12 (centres unmarked) [(33)]
[2]; [9]
  MIC: 6 µg/mL
[3]; concentration of 10^−5 M
  Average cytotoxicity (% inhibition), KB cells: 14%
[4]; [10]
  cytotoxicity: 31%
[5]
  cytotoxicity: 37%

## Cl.Cl.NCC(N)c1c[nH]c2ccc(Br)cc12 (centres unmarked) [(27), 1,2-diamino-1-(5′-bromo-3′-indolyl)ethane dihydrochloride]
[2]; [9]
  MIC: 25 µg/mL
[3]; concentration of 10^−5 M
  Average cytotoxicity (% inhibition), KB cells: 0%
[4]; [10]
  cytotoxicity: 14%
[5]
  cytotoxicity: 26%

## O=[N+]([O-])c1ccc(C(c2c[nH]c3ccccc23)N(O)Cc2ccccc2)cc1 (centres unmarked) [(42)]
[2]; [6]
  MIC: 50 µg/mL (≈ 134 µM)
